This note sets out measurements from ChEMBL document CHEMBL1240511, “Design, synthesis, and in vitro pharmacology of new radiolabeled gamma-hydroxybutyric acid analogues including photolabile analogues with irreversible binding to the high-affinity gamma-hydroxybutyric acid binding sites” (J Med Chem, 2010).

Assay [1] is described as follows: Displacement of [3H]NCS-382 from GABAB receptor gamma-hydroxybutyric acid binding site in rat cerebral cortex synaptic membranes after 1 hr by liquid scintillation counting. Type of assay: cell membranes, Membrane. In general terms: Loss of bound radioactivity is the signal in a displacement assay; it reports binding, not function.
A further assay is filed under the species Rattus norvegicus. Briefly: Binding affinity to GABAB receptor gamma-hydroxybutyric acid binding site in UV irradiated rat cerebral cortex synaptic membranes assessed as covalent binding at 100 nM after 1 hr by gamma-hydroxybutyric acid displacement assay. In kind it is tissue-based. To be noted: tested as the 125I-labelled form.

In general, pKi refers to the Ki on a negative log10 scale, so that one unit is a factor of ten. Higher therefore signals a small Ki.

pKi: −log10 of the molar value. Active and inactive are the calls of the source. No cut-off for these calls is given here.

With `O=C(O)CCC(O)c1ccc(OCc2cccc(I)c2)cc1` (centres undefined), in assay [1], the negative logarithm of the Ki (pKi) is 7.12.

As for `[N-]=[N+]=Nc1ccc(I)cc1COc1ccc(C(O)CCC(=O)O)cc1` (centres undefined), the outcome in the assay filed under Rattus norvegicus was Active. In assay [1], this compound had a negative-log Ki (pKi) of 6.92.

Take `[N-]=[N+]=Nc1ccc(COc2ccc(C(O)CCC(=O)O)cc2)cc1I` (centres undefined): the pKi in assay [1] was 6.73.
